# Laboratory results: US11447454B2, “Synthesis of benzodiazepine derivatives” (Trio Medicines Limited, priority 2015, dated 2022)
# Experiments:
# [1] = Solubility study in Britton-Robinson's buffer (HPLC-UV); format: physicochemical
# Description: The test compound (2.5 mg of solid; n=1) was weighed in a clear glass vial and Britton-Robinson's buffer (0.5 mL) was added (pH 2.01, pH 3.06, pH 4.06, pH 5.08, pH 5.99, pH 6.98, and pH 8.16). The solution was agitated at ambient temperature overnight using a vial roller system, and then filtered (0.45 µm pore size; without pre-saturation). Two aliquots (50 μL) were sampled from the filtrate and diluted with one volume of 0.1 N hydrochloric acid and methanol (1:1 v/v) before analysis by HPLC-UV. A standard was prepared in DMSO at 10 mg/mL (n=1) which was then diluted 10-fold in 0.1 N hydrochloric acid and methanol (1:1 v/v) to give a 1 mg/mL solution. The concentration of test compound in the filtrate was quantified relative to the concentration standard.
# Analysis was done using a gradient HPLC-UV system with a total cycle time of 6 min. The UV detection between 220 nm and 300 nm was done using a photodiode array detector. Total response was monitored.
# The values given in the table above are for crystalline YF476 and (TR2-A) and amorphous (TR1).
# [2] = Morphology studies (crystallisation attempts, XRPD); format: physicochemical
# Excerpt: This is indicative of an advantage over YF476 in terms of the formulation of a suitable pharmaceutical composition. YF476 is crystalline, which contributes to poor solubility and bioavailability. Amorphous YF476 can be used to increase bioavailability, but requires stabilization, which can be achieved as a solid dispersion on hydroxypropyl methyl cellulose by spray-drying.
# AGSGR cells = assay: Sulphorhodamine-B (SRB) proliferation assay; format: cell-based, human; conditions: G17 10 nM
# Description: The potency of (TR2) and (TR3) was tested in a sulphorhodamine-B (SRB) proliferation assay in a human gastric adenocarcinoma cell line stably transfected with the human gastrin/CCK2 receptor gene (AGSGR). SRB is a fluorescent dye that binds to proteins, so cells with a high rate of protein synthesis (proliferative cells) will show high levels of fluorescence in the SRB assay. The gastrin fragment G17 has an anti-proliferative effect on AGSGR cells. So, when treated with G17, the cells show lower levels of fluorescence in the SRB assay. (TR2) and (TR3) were compared with the positive controls YF476 and YM022. […] None of the compounds tested affected AGSGR cell proliferation in the absence of G17.
# [3] = tested on: increase in H+ concentration of gastric aspirate induced by pentagastrin; assay: Pharmacodynamic effect in healthy subjects (pentagastrin infusion); format: in vivo, human
# Description: Pentagastrin induces gastric acid secretion, and thereby increases H^+ concentration.
# In further clinical studies, in healthy volunteers, single oral doses of 5, 15, 50 and 100 mg of (TR2) or 5, 15, 25 and 50 mg (TR2-A) were administered in conjunction with pentagastrin infusion (i.v. dose 0.6 μg/kg/h for 2 h).
# YF476 with pentagastrin infusion.
# CCK2 (human) = target: T1, CCK2 (human) (Homo sapiens, UniProt P32239); assay: CCK2 receptor functional assay (antagonist effect, cAMP, HTRF); format: cell-based
# T1 construct: expressed in transfected cells; host or cells: CHO cells
# T1 sequence (P32239 1-447): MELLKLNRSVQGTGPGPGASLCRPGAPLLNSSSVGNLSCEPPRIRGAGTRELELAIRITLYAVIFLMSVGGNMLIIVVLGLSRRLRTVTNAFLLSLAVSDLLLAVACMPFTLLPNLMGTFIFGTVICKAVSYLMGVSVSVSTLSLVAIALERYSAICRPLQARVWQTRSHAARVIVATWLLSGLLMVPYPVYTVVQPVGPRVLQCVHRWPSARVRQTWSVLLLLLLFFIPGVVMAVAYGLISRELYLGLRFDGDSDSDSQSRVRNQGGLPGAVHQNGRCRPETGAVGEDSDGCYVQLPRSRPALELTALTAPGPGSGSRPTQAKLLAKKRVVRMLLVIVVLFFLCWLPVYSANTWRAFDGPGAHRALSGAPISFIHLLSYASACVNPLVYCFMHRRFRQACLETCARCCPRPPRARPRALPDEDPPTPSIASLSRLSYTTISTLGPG
# Excerpt: (§1) (TR2) and (TR3) were compared with YF476 and YM022 in CCK1 and CCK2 receptor functional assays with the following assay criteria.
# (§2) Furthermore, the selectivity of (TR2) for the CCK2 receptor over the CCK1 receptor was 30% higher than the selectivity of YF476. The potency of the antagonists is expressed as IC50, the concentration of antagonist that causes a half-maximum inhibition of the control agonist response. The affinity of the antagonist for the receptor is expressed as KB, the concentration of antagonist, which would occupy 50% of the receptors at equilibrium.
# panel of 80 receptors = assay: Receptor binding screen, radiolabelled ligands; conditions: scintillation counting; other than CCK2 and CCK1
# Description: The potential of (TR2) and (TR3) to bind to other cellular and nuclear receptors was tested in a panel of 80 receptors. The assay used radiolabelled receptor ligands (agonist or antagonist, depending on the receptor), and the ability of the test compounds to inhibit ligand binding was measured by scintillation counting.
# CCK1 (human) = target: T2, CCK1 (human) (Homo sapiens, UniProt P32238); assay: CCK1 receptor functional assay (antagonist effect, cAMP, HTRF); format: cell-based
# T2 construct: expressed in transfected cells; host or cells: CHO cells
# T2 sequence (P32238 1-428): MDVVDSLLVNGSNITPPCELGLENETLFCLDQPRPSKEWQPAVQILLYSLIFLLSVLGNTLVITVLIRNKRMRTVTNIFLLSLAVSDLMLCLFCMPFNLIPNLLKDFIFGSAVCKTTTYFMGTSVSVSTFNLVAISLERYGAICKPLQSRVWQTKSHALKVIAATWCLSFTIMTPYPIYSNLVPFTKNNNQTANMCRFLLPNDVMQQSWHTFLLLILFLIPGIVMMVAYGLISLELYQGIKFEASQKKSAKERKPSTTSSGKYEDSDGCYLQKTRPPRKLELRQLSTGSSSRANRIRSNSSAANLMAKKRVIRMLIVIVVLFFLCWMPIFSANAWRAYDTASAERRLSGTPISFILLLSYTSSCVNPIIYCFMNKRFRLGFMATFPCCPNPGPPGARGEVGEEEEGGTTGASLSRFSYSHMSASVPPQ
# Excerpt: as §1
# as §2, with “The” for “Furthermore, the selectivity of (TR2) for the CCK2 receptor over the CCK1 receptor was 30% higher than the selectivity of YF476. The”
# [4] = Pharmacokinetics in healthy subjects; conditions: human, in vivo, po
# Description: In an initial study, healthy volunteers took a single oral dose of 100 mg (TR2) as an active pharmaceutical ingredient (API) in a capsule. Plasma concentrations were measured.
# In further clinical studies, healthy volunteers (n=8) took single oral doses of 5, 15, 50 and 100 mg (TR2) as an active pharmaceutical ingredient (API) in a capsule. Plasma concentrations were measured.
# Healthy volunteers (n=8) took single oral doses of 5, 15, 25 and 50 mg (TR2-A) as API in a capsule (TR2-A (crystalline) in hard gelatin capsules with no excipient, no processing of the API). Plasma concentrations of (TR2) and (TR2-A) were measured. The area under the curve of plasma concentrations of (TR2) after a single oral dose of 50 mg of (TR2-A) API (AUC0-24 h=212.5) was about the same as that observed for a similar formulation of a single oral dose of (TR2) 100 mg (AUC0-24 h=241.5). […] Moreover, the plasma concentrations of (TR2-A) were low (AUC0-24 h<10), showing that (TR2-A) is acting as a prodrug for (TR2).
smiles,measurement,setting,value
CNc1cccc(NC(=O)NC2N=C(c3ccccn3)c3ccccc3N(CC(=O)C(C)(C)CO)C2=O)c1 (racemic) [TR1],aqueous solubility compared (in words),[1],more soluble in aqueous solution than YF476
same,preferred solid state,[2],prefer an amorphous state over a crystalline state
"Cc1cccc(NC(=O)N[C@@H]2N=C(c3ccccc3)c3ccccc3N(CC(=O)c3ccccc3C)C2=O)c1 [YM022, reference compound]",inhibition of the anti-proliferative effects of G17,AGSGR cells; compound 100 nM,completely inhibited
"CNc1cccc(NC(=O)N[C@@H]2N=C(c3ccccn3)c3ccccc3N(CC(=O)C(C)(C)COC(C)=O)C2=O)c1 [TR2-A, (R)-1-[1-(4-Acetoxy-3,3-dimethyl-2-oxo-butyl)-2-oxo-5-pyridin-2-yl-2,3-dihydro-1H-benzo[e][1,4]diazepin-3-yl]-3-(3-methylamino-phenyl)-urea]",potency as a CCK2 receptor antagonist in healthy subjects (in words),[3],greater than that of both (TR2) and YF476
CNc1cccc(NC(=O)N[C@H]2N=C(c3ccccn3)c3ccccc3N(CC(=O)C(C)(C)CO)C2=O)c1 [TR3],preferred solid state,[2],prefer an amorphous state over a crystalline state
same,CCK2 receptor antagonism (in words),CCK2 (human),potent CCK2 receptor antagonists
same,inhibition of ligand binding in panel of 80 receptors,panel of 80 receptors,No significant receptor binding
same,CCK1 receptor antagonism (in words),CCK1 (human),less potent CCK1 receptor antagonists
same,inhibition of the anti-proliferative effects of G17,AGSGR cells; compound 500 nM,had the same effect
"CNc1cccc(NC(=O)N[C@@H]2N=C(c3ccccn3)c3ccccc3N(CC(=O)C(C)(C)C)C2=O)c1 [YF476, reference compound]",inhibition of the anti-proliferative effects of G17,AGSGR cells; compound 100 nM,completely inhibited
"CNc1cccc(NC(=O)N[C@@H]2N=C(c3ccccn3)c3ccccc3N(CC(=O)C(C)(C)CO)C2=O)c1 [TR2, (R)-1-[1-(4-Hydroxy-3,3-dimethyl-2-oxo-butyl)-2-oxo-5-pyridin-2-yl-2,3-dihydro-1H-benzo[e][1,4]diazepin-3-yl]-3-(3-methylamino-phenyl)-urea]",preferred solid state,[2],prefer an amorphous state over a crystalline state
same,solid state by XRPD analysis,[2],amorphous state
same,CCK2 receptor antagonism (in words),CCK2 (human),potent CCK2 receptor antagonists
same,selectivity for the CCK2 receptor over the CCK1 receptor higher than the selectivity of YF476,CCK2 (human),30%
same,less potent than YF476 and YM022 in the CCK2 assay,CCK2 (human); IC50 compared,about 5 fold
same,affinity for the CCK2 receptor lower than that of YF476,CCK2 (human); KB compared,about 5 fold
same,affinity for the CCK2 receptor relative to YM022,CCK2 (human); KB compared,twice
same,inhibition of ligand binding in panel of 80 receptors,panel of 80 receptors,No significant receptor binding
same,AUC relative to YF476 100 mg,[4],about twice
same,CCK1 receptor antagonism (in words),CCK1 (human),less potent CCK1 receptor antagonists
same,inhibition of the anti-proliferative effects of G17,AGSGR cells; compound 100 nM,completely inhibited
